Patent US9296723B2, “NAMPT inhibitors” (AbbVie Inc., priority 2012, dated 2016)
pIC50: −log10 of the molar value.

Assays:
PC3 cells = experiment: NAMPT Cell Proliferation Assay (Cell Titer Glo); format: cell-based; conditions: Homo sapiens, PC-3, 120 h, incubated 5 days, cell viability
Procedure, shortened: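 Viability measured by Cell Titer Glo luminescence after 5-day exposure of attached PC3 cells to compound, dosed as 10-fold serial dilutions ([…]) in RPMI/10% FBS at 37 °C and 5% CO2. Percent inhibition fitted to sigmoidal dose-response curves for IC50.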

NAMPT [1] = molecular target: T1, NAMPT (Homo sapiens, UniProt P43490); experiment: TR-FRET Binding Assay of NAMPT with PRPP; conditions: 2 nM NAMPT, 2 nM probe, 200 µM PRPP and 2.5 mM ATP, equilibrated 16 hours
Procedure, shortened: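 Substrates present: PRPP at 200 µM and ATP at 2.5 mM, final, alongside 2 nM enzyme, 2 nM tracer and 1 nM terbium anti-His donor in 2% DMSO. A 16-hour equilibration preceded the time-resolved FRET read, allowing compounds to be enzymatically modified.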

NAMPT [2] = molecular target: T1, NAMPT; experiment: Time-Resolved Fluorescence Resonance Energy Transfer (TR-FRET) Binding Assay of NAMPT; conditions: 6.8 nM NAMPT, 200 nM probe, equilibrated 3 hours, no substrates
Procedure, shortened: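 IC50s come from four-parameter logistic fits of control-normalized Em520/Em495 TR-FRET ratios (Ex 337 nm) against compound concentration. Before reading, enzyme, probe, antibody and compound equilibrated for 3 h at room temperature.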

T1 sequence (P43490 whole entry): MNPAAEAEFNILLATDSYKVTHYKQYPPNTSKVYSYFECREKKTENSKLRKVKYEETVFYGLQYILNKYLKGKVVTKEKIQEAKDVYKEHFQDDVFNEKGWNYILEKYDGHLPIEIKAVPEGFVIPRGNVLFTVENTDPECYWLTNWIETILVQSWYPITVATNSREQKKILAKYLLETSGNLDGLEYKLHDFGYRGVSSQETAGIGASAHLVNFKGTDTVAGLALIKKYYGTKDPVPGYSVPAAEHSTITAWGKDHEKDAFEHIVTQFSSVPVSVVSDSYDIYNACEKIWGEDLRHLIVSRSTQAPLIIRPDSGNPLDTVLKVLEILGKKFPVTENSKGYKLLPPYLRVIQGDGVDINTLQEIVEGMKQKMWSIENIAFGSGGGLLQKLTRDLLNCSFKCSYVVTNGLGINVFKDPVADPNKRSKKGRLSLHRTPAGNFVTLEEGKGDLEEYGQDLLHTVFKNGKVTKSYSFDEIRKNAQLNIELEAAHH

SMILES	pIC50 (PC3 cells)	pIC50 (NAMPT [1])	pIC50 (NAMPT [2])
O=C(Nc1ccc(C2CCN(C(=O)c3ccccc3)C2)cc1)N1CC(c2cccnc2)C1 (stereo not drawn) [Example 71, N-[4-(1-benzoylpyrrolidin-3-yl)phenyl]-3-(pyridin-3-yl)azetidine-1-carboxamide]	7.97	9.74	7.70
CC1CC1C(=O)N1CC(Oc2ccc(NC(=O)N3CC(c4cccnc4)C3)cc2)C1 (stereo not drawn) [Example 125, N-[4-({1-[(2-methylcyclopropyl)carbonyl]azetidin-3-yl}oxy)phenyl]-3-(pyridin-3-yl)azetidine-1-carboxamide]	8.09	9.57	7.53
O=C(CC1CC1)N1CC(Oc2ccc(NC(=O)N3CC(c4cccnc4)C3)cc2)C1 [Example 114, N-(4-{[1-(cyclopropylacetyl)azetidin-3-yl]oxy}phenyl)-3-(pyridin-3-yl)azetidine-1-carboxamide]	8.09	9.72	7.80
O=C(Nc1ccc(C2CCN(C(=O)C3CC3)C2)cc1)N1CC(c2cccnc2)C1 (stereo not drawn) [Example 73, N-{4-[1-(cyclopropylcarbonyl)pyrrolidin-3-yl]phenyl}-3-(pyridin-3-yl)azetidine-1-carboxamide]	7.07	9.18	6.81
CC(C)(C)OC(=O)N1CCC(CCCCNC(=O)N2CC(c3cccnc3)C2)CC1 [Example 15, tert-butyl 4-[4-({[3-(pyridin-3-yl)azetidin-1-yl]carbonyl}amino)butyl]piperidine-1-carboxylate]	7.00	9.04	6.51
O=C(CC1CCCCC1)N1CC(Oc2ccc(NC(=O)N3CC(c4cccnc4)C3)cc2)C1 [Example 138, N-(4-{[1-(cyclohexylacetyl)azetidin-3-yl]oxy}phenyl)-3-(pyridin-3-yl)azetidine-1-carboxamide]	8.08	9.22	7.94
CC(C)C(C)C(=O)N1CC[C@@H](Oc2ccc(NC(=O)N3CC(c4cccnc4)C3)cc2)C1 (stereo partly drawn) [Example 335, N-(4-{[(3R)-1-(2,3-dimethylbutanoyl)pyrrolidin-3-yl]oxy}phenyl)-3-(pyridin-3-yl)azetidine-1-carboxamide]	7.80	9.31	7.34
O=C(Nc1ccc(C2CCN(C(=O)C3CCCCC3)C2)cc1)N1CC(c2cccnc2)C1 (stereo not drawn) [Example 293, N-{4-[1-(cyclohexylcarbonyl)pyrrolidin-3-yl]phenyl}-3-(pyridin-3-yl)azetidine-1-carboxamide]	7.15	9.68	7.25
CC(C)(C)CC(=O)N1CC[C@@H](Oc2ccc(NC(=O)N3CC(c4cccnc4)C3)cc2)C1 [Example 329, N-(4-{[(3R)-1-(3,3-dimethylbutanoyl)pyrrolidin-3-yl]oxy}phenyl)-3-(pyridin-3-yl)azetidine-1-carboxamide]	7.84	9.56	7.52
CCC(C)CC(=O)N1CCC(c2ccc(NC(=O)N3CC(c4cccnc4)C3)cc2)C1 (stereo not drawn) [Example 259, N-{4-[1-(3-methylpentanoyl)pyrrolidin-3-yl]phenyl}-3-(pyridin-3-yl)azetidine-1-carboxamide]	7.19	9.34	7.26
O=C(Nc1ccc(C2CN(C(=O)[C@@H]3CCCO3)C2)cc1)N1CC(c2cccnc2)C1 [Example 102, 3-(pyridin-3-yl)-N-(4-{1-[(2S)-tetrahydrofuran-2-ylcarbonyl]azetidin-3-yl}phenyl)azetidine-1-carboxamide]	7.17	9.54	7.02
